Test results as given in patent publication US10130590B2, “Methods of treating cancer with atovaquone-related compounds” (DANA-FARBER CANCER INSTITUTE, INC., priority 2013, dated 2018).

Experiments:
JAK family members = test: In vitro kinase assays (Invitrogen SelectScreen); assay type: biochemical; settings: atovaquone 15 μM
Procedure: FIG. 15 contains a bar graph quantifying kinase activity (expressed as percent of vehicle) for the indicated kinases (JAK1, JAK2, JAK3, TYK2, SRC) determined using in vitro kinase assays (Invitrogen SelectScreen) and following treatment with atovaquone (AQ) (15 μM) or JAK inhibitor 1 (0.5 μM).
To understand how atovaquone inhibits STAT3 phosphorylation, the possibility that atovaquone decreases the kinase activity of JAKs, which are responsible for STAT3 activation in the systems previously tested was considered. To assess kinase activity, the extent of kinase auto-phosphorylation, which provides a cellular readout of kinase activity, was first analyzed. […] In particular, U266 cells were treated with atovaquone (15 μM) or JAK inhibitor 1(1 μM) for 1 hour, followed by lysis and immunoprecipitation to TYK2. The blot was probed with a pan-phospho-tyrosine antibody (FIG. 14A). Due to technical limitations, tyrosine phosphorylation of other JAK family members was not detected in U266 cells. Next, HEL cells were treated with atovaquone (20 μM) or JAK inhibitor 1 (1 μM) for 6 hours, followed by lysis and immunoprecipitation to JAK2, which was selected because these cells harbor mutant JAK2-V617F. The blot was probed with a pan-phospho-tyrosine antibody, as well as antibodies specific to phospho-Tyr570 and phospho-Tyr1007/1008 (FIG. 14B). […]

STAT5 = STAT5 phosphorylation in cancer cells; assay type: cell-based
Text: It has been discovered, using an unbiased gene expression-based approach, that atovaquone is a novel STAT3 inhibitor. Atovaquone acts by diminishing cell-surface gp130 expression and STAT3 tyrosine phosphorylation. As a consequence, critical STAT3 target genes mediating survival and proliferation are reduced, such as survivin, Bcl-2 family members, and cyclin D1. Moreover, atovaquone inhibits the viability of STAT3-dependent cancer cells by inducing apoptosis and disrupting cell cycle progression. […] Since STAT5 activation is crucial to cancer pathogenesis caused by JAK2-V617F, the additional inhibition of STAT5 in this context is a desirable effect of atovaquone. […] Because the effects of atovaquone on STAT activation are restricted to gp130-dependent signaling, atovaquone inhibits STATs more selectively than direct pharmacological JAK inhibition. […] At the same time, the actions of atovaquone extend to all cytokines that signal through gp130, including LIF and OSM, thereby exerting broader effects than therapies specifically directed against IL-6 or IL-6 receptor, such as monoclonal antibodies. This is also advantageous, since oncogenic effects of LIF and OSM have been reported.

**Q.** For `O=C1C(O)=C([C@H]2CC[C@H](c3ccc(Cl)cc3)CC2)C(=O)c2ccccc21` [atovaquone, trans-2-[4-(4-chlorophenyl)cyclohexyl]-3-hydroxy-1,4-naphthalenedione], which “in vitro kinase activity” value (JAK family members) is on record?
**A.** Its value is “no inhibition”.

**Q.** And the “mutant JAK2-dependent phosphorylation of STAT5” value (STAT5; HEL cells)?
**A.** The value was “inhibited”.

**Q.** What about the “STAT5 phosphorylation (BCR-ABL activated)” value (STAT5; K562 cells) of the same compound?
**A.** The value was “did not inhibit STAT5 phosphorylation”.
